Common to all, as to experiment: NCI anticancer screen, dose series, 48 h
For test [1], the system named is A498 renal.
Test [2] relates to BT-549 breast.
In test [3] the test system is CAKI-1 renal.
Test [4] concerns EKVX NSCLC.
Test [5] concerns HOP-92 NSCLC.
Test [6] deals with IGROV1 ovarian.
The test system of test [7] is M14 melanoma.
Test [8] has as its system MDA-MB-435.
In test [9] the test system is MOLT-4 leukemia.
In test [10] the test system is NCI-H23 lung.
For test [11], the system named is OVCAR-5 ovarian.
Test [12] relates to OVCAR-8 ovarian.
In test [13] the test system is SK-MEL-28 melanoma.
For test [14], the system named is SK-OV-3 ovarian.
Test [15] has as its system TK-10 renal.
Test [16] deals with UACC-62 melanoma.
The subject of test [17] is HCC-2998 colon.
Test [18] has as its system SF-539 CNS.
The subject of test [19] is SNB-75 CNS.

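All cell lines were grown in 96-well plates and treated with compound for 48 hours. TGI: total growth inhibition.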

Turning to `CC1(C)CC[C@]2(C)[C@@H](O)C[C@]3(C)C(=CC[C@@H]4[C@@]5(C)CC[C@H](O)C(C)(C)[C@@H]5CC[C@]43C)[C@@H]2C1`, the TGI in test [1] is 99.2 µM; in test [2], over 100 µM; in test [3], over 100 µM; in test [4] it was over 100 µM; in [5] it was 42.3 µM; in test [6] it was over 100 µM. Also, the TGI in test [7] was over 100 µM; in test [8], over 100 µM; in test [9] it was over 100 µM; in [10] it was over 100 µM; in test [11], over 100 µM; in [12], 74.3 µM. For the same compound, the TGI in test [13] was over 100 µM; in test [14], 40.7 µM; in test [15], 93.2 µM; in test [16], over 100 µM.
As to `C=CC(=C)CCC(Br)C(C)(C)Br` (configuration not stated), the TGI in test [2], in [4], in test [17], in [5], in test [6] and in test [7] was over 100 µM each time. The TGI was over 100 µM in test [8]; 45.7 µM in test [9]; over 100 µM in test [10]; over 100 µM in test [11]; over 100 µM in test [12]; over 100 µM in test [18]. Also, the TGI in [13], in [14], in [19], in [15] and in [16] was over 100 µM in each case.
For the compound `C1=C2C3=[N+](CCCC3)CC2Cc2sccc21` (configuration not stated), the TGI in test [1], in test [2], in [3], in test [4], in [5] and in test [6] was over 100 µM in each case. The TGI in [7], in test [8], in test [9], in test [10], in test [11] and in test [12] was over 100 µM throughout. Besides, the TGI in test [13], in test [14], in [19], in [15] and in test [16] was over 100 µM in each case.
On to `CCCC(=O)Oc1c2ccsc2c(OC(=O)CCC)c2ccsc12`, for which the TGI in [1] stood at 7.34 µM; in [2] it was 2.83 µM; in test [3], 11.7 µM; in [4] it was 5.2 µM; in test [17], 6.71 µM; in [5] it was 3.06 µM. For the same compound, the TGI is 6.87 µM in [6]; over 12.8 µM in test [7]; 0.586 µM in [8]; 7.63 µM in test [9]; 3.64 µM in test [10]; 7.36 µM in test [11]. Moreover, the TGI in test [12] was found to be 2.02 µM; in [18], 2.16 µM; in [13], 1.59 µM; in [14], 10.4 µM; in [15], 7.67 µM; in test [16], 2.07 µM.
With `COC(=O)[C@H](Cc1ccccc1)NC(=O)OCC1OC(n2cc(C)c(=O)[nH]c2=O)CC1N=[N+]=[N-]` (some centres not stated), the TGI in test [2], in test [3], in test [4], in test [17], in [5] and in [6] was over 100 µM each time. Moreover, the TGI in test [7], in [8], in test [9], in test [10], in [11] and in test [12] was over 100 µM each time. Further, the TGI in test [14], in test [19], in test [15] and in test [16] was over 100 µM throughout.
As to `Cc1ccc(C(=O)C2C=C(c3ccc(C)cc3)SC3C=CCC32)cc1` (configuration not stated), the TGI in test [1] stood at 58.4 µM; in [2], 37.3 µM; in test [3] it was 42.4 µM; in [4] it was 97.6 µM; in test [5], 34 µM; in test [6] it was 40.1 µM. The TGI was 36.4 µM in [7]; 30 µM in [8]; 44.9 µM in [9]; 53 µM in test [10]; 44.4 µM in [11]; 32.3 µM in test [12]. Besides, the TGI in [18] is 32.2 µM; in [13], 33.9 µM; in test [14] it was 54.3 µM; in test [15] it was 53.3 µM; in [16], 38.8 µM.
In the case of `CN1/C(=C\N=O)C(C)(C)N(O)C1(C)C`, the TGI in [2], in [3], in test [4], in [17], in test [5] and in test [6] was over 100 µM throughout. For the same compound, the TGI in [7], in test [8], in [9], in test [10], in [11] and in [12] was over 100 µM in each case. The TGI in test [18], in test [13], in test [14], in [19], in [15] and in test [16] was over 100 µM each time.
Consider `COC(=O)c1ccc(NCC2=CC(=O)C=CC2=O)cc1O`, for which the TGI in [1] came out at 32.8 µM; in test [2], 25.1 µM; in [3] it was 32.8 µM; in [4] it was 31.6 µM; in test [5] it was 9.27 µM; in test [6], 41.6 µM. Besides, the TGI is 50.6 µM in test [7]; 82.9 µM in test [8]; over 100 µM in [9]; 36.6 µM in test [10]; 36.9 µM in test [11]; 30.8 µM in test [12]. The TGI in [18] was 28 µM; in test [13], over 100 µM; in test [14] it was 42.5 µM; in test [19] it was 42.9 µM; in [15], 27.9 µM; in test [16] it was 30.4 µM.

These data come from PubChem BioAssay (NCI).
